Measurements from article PMC11239830, “Synthetic macrolides overcoming MLSBK-resistant pathogens” (Cell Discovery, 2024).
≈ marks a conversion by molar mass, not a printed value. Where two headings read alike, the source gives them in different places. Blank lines part the entries; values can stand above or below the molecule they belong to.

Columns and labels:
S. pneumoniae = assay: MIC, broth microdilution; type: cell-based, Streptococcus pneumoniae
How it was run: (§1)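 Minimum inhibitory concentrations were measured by broth microdilution following CLSI guidelines. Plates were incubated at 37 °C for 16–20 h before results were read and recorded, and each determination was repeated at least three times.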

S. pyogenes = assay: MIC, broth microdilution; type: cell-based, Streptococcus pyogenes
How it was run: as §1

H. influenzae = assay: MIC, broth microdilution; type: cell-based, Haemophilus influenzae; conditions: Haemophilus influenzae, ATCC49247, H. influenzae ATCC49247, Azi-S; read-out: MIC
How it was run: as §1

M. catarrhalis = assay: MIC, broth microdilution; type: cell-based, Moraxella catarrhalis; conditions: Moraxella catarrhalis; M. catarrhalis 13L332, Ery-S; read-out: MIC
Description: MICs were determined by the microdilution method according to the Clinical and Laboratory Standards Institute guidelines. Briefly, the stock solution of compounds and the reference antibiotics were diluted 2-fold in sterile 96-well plates with cation-adjusted Mueller-Hinton broth, and mixed with CAMHB-containing bacteria to give a final inoculum of 5 × 10^5 CFU/mL for broth microdilution experiments. […] Finally, the 96-well plates were incubated at 37 °C for 16–20 h to observe and record the results. The lowest concentration at which no bacterial growth could be observed visually was identified as the MICs of the compounds. The assay for MICs was replicated at least three times.

[1] = In vivo pharmacokinetic study; set-up: species or system SD rats; conditions: SD (Sprague-Dawley), rat, iv, plasma
Description: The SD rats were fasted overnight and dosed i.v. at a dose of 5 mg/kg in a solution of DMSO/PEG 400/water (5%/24%/71%). The whole blood was collected into tubes containing sodium heparin at 0.083 h, 0.25 h, 0.5 h, 1 h, 2 h, 4 h, 8 h and 24 h after dosing. After centrifugation of 6000 rpm for 10 min at 4 °C, plasma samples were transferred into 1.5 mL tubes and stored at –20 °C. Prior to analysis, the samples were thawed on ice. An amount of 50 μL of each plasma sample was added to a mixture of 50 μL of propranolol (300 ng/mL) and 100 μL of acetonitrile and centrifuged at 12,000 rpm at 4 °C for 10 min. The supernatant was diluted and analyzed by LC-MS/MS. The liquid chromatography was conducted on a Thermo Scientific Q Exactive HF-X (ThermoFisher Scientific, USA) instrument, employing an ACQUITY UPLC BEH C18 Column with dimensions of 130 Å, 1.7 µm, 2.1 mm × 100 mm. The liquid phase method employed gradient elution with mobile phases consisting of acetonitrile and an 0.1% aqueous formic acid solution. Mass spectrometry was conducted in positive ion mode. The quantification of drug concentration in plasma samples was performed using the internal standard method, and the obtained pharmacokinetic parameters were calculated using Phoenix WinNonlin software.

S. aureus = assay: MIC, broth microdilution; type: cell-based, Staphylococcus aureus; conditions: Staphylococcus aureus, read-out: MIC
How it was run: as §1

human ribosome = system: human ribosome; set-up: method as in PMID 32601485; conditions: read-out: IC50, inhibition on human ribosome; cited from earlier work
[2] = system: 15B196 S. aureus ribosomes (A2058-methylated); assay: PURE in vitro translation inhibition assay; type: biochemical, Staphylococcus aureus; conditions: mean ± SD
Description: (§2) To validate the in vitro activity of our compounds, we employed an in vitro reconstituted E. coli Protein synthesis Using a Recombinant Elements (PURE) translation system, substituting E. coli ribosomes with the purified S. aureus ribosomes.
(§3) 5 μL of PURE reaction mix that translates a gene encoding the Nanoluc luciferase was set up in the presence or absence of tested compounds. Protein synthesis was initiated by incubating reactions at 37 °C for 60 min and stopped by placing on ice for 5 min. Luciferase activity was quantified using the Nano-Glo luciferase assay system and read on a GloMax 20/20 luminometer (Promega, USA). For each compound, the in vitro translation inhibition assay was performed in three biological triplicates over a range of concentrations from 0.001 μM to 1000 μM. A compound-free control was used to normalize luminescence measurements. The calculated luminescence percentages were plotted against compound concentrations on a semilog scale using GraphPad Prism.

WT S. aureus ribosomes = assay: PURE in vitro translation inhibition assay; type: biochemical, Staphylococcus aureus; conditions: mean ± SD
Description: as §2, §3

[3] = CCK-8 assay for cytotoxicity; type: cell-based, human; conditions: human, HEK293T cells, HEK293T cell viability
Description: HepG2 cells (6 × 10^3) and HEK293T cells (4 × 10^3) were seeded into 96-well plates in 90 μL of DMEM medium containing 10% FBS per well. […] After overnight incubation, the test compound stock solution was diluted with DMEM medium containing 10% FBS to every target concentration, and 10 μL of each was added to each well. Three parallel experiments were set up for each compound. After incubation for 48 h, 10 μL of cell counting kit-8 (CCK-8) reagent was added to each well in sequence according to the manufacturer’s instructions. […] This experiment was independently repeated three times. The data were processed by GraphPad Prism.

[4] = Streptococcus pneumoniae, ATCC49619, S. pneumoniae ATCC49619, Ery-S, read-out: MIC
[5] = Streptococcus pneumoniae, S. pneumoniae 07P390, c-ermB, read-out: MIC
[6] = Streptococcus pyogenes, S. pyogenes 12-206, c-ermTR, read-out: MIC

Structure (SMILES): CCC1OC(=O)C(C)C(OC(=O)NCCCOCCC#Cc2ccc3c(=O)c(C(=O)O)cn(C4CC4)c3c2)C(C)C(OC2OC(C)CC(N(C)C)C2O)C(C)(OC)CC(C)C(=NOC)C(C)C2OC(=O)OC12C (stereo not shown) (hydrate or solvate) [72c]
melting point: 144.6 to 145.2 °C

Structure (SMILES): CCOC(=O)c1cn(C)c2cc(C#CCCCCCCNC(=O)O[C@H]3[C@H](C)[C@@H](O[C@@H]4O[C@H](C)C[C@H](N(C)C)[C@H]4O)[C@](C)(OC)C[C@@H](C)C(=O)[C@H](C)[C@H]4NC(=O)O[C@]4(C)[C@@H](CC)OC(=O)[C@@H]3C)ccc2c1=O (hydrate or solvate) [88h]
melting point: 141.1 to 142 °C

Structure (SMILES): CC[C@H]1OC(=O)[C@H](C)[C@@H](OC(=O)NCCCCCCC#Cc2ccc3c(=O)c(C(=O)O)c[nH]c3c2)[C@H](C)[C@@H](O[C@@H]2O[C@H](C)C[C@H](N(C)C)[C@H]2O)[C@](C)(OC)C[C@@H](C)C(=O)[C@H](C)[C@H]2NC(=O)O[C@@]21C (hydrate or solvate) [88i]
melting point: 162.9 to 166 °C

Structure (SMILES): CC[C@H]1OC(=O)[C@H](C)[C@@H](OC(=O)NCCCOCCC#Cc2ccc3c(=O)c(C(=O)O)cn(C)c3c2)[C@H](C)[C@@H](O[C@@H]2O[C@H](C)C[C@H](N(C)C)[C@H]2O)[C@](C)(OC)C[C@@H](C)C(=O)[C@H](C)[C@H]2NC(=O)O[C@@]21C (hydrate or solvate) [MCX-190]
melting point: 157.9 to 158.8 °C

Structure (SMILES): CC[C@H]1OC(=O)[C@H](C)[C@@H](OC(=O)NCCCCCCC#Cc2ccc3c(=O)c(C(=O)O)cn(C)c3c2)[C@H](C)[C@@H](O[C@@H]2O[C@H](C)C[C@H](N(C)C)[C@H]2O)[C@](C)(OC)C[C@@H](C)C(=O)[C@H](C)[C@H]2NC(=O)O[C@@]21C (hydrate or solvate) [MCX-219]
melting point: 179.5 to 180.3 °C

Structure (SMILES): CCOC(=O)c1cn(C)c2cc(C#CCCCCCCNC(=O)O[C@H]3[C@H](C)[C@@H](O[C@@H]4O[C@H](C)C[C@H](N(C)C)[C@H]4O)[C@](C)(OC)C[C@@H](C)C(=O)[C@H](C)[C@H]4NC(=O)O[C@]4(C)[C@@H](CC)OC(=O)[C@@H]3C)ccc2c1=O [88h]
MIC (S. pneumoniae; [4]): ≤ 0.008 µg/mL
MIC (S. pneumoniae; Streptococcus pneumoniae, S. pneumoniae 05O173, c-ermB, mef, read-out: MIC): 64 µg/mL (≈ 64.3 µM)
MIC (S. pneumoniae; [5]): 0.5 µg/mL (≈ 0.502 µM)
MIC (S. pyogenes; [6]): 2 µg/mL (≈ 2.01 µM)
MIC (H. influenzae): 32 µg/mL (≈ 32.2 µM)
MIC (M. catarrhalis): 4 µg/mL (≈ 4.02 µM)
Cmax ([1]; male SD rats, i.v. 5 mg/kg): 2650 ± 250 ng/mL
MRT ([1]; male SD rats, i.v. 5 mg/kg): 1.64 ± 0.665 h
Tmax ([1]; male SD rats, i.v. 5 mg/kg): 4.8 min
half-life ([1]; male SD rats, i.v. 5 mg/kg): 2.63 ± 1.3 h
AUC(0-inf) ([1]; male SD rats, i.v. 5 mg/kg, mean ± SD, n 3): 1790 ± 90 ng·h/mL
AUC(0-t) ([1]; male SD rats, i.v. 5 mg/kg, read-out: AUC0-24): 1760 ± 100 ng·h/mL
clearance ([1]; male, 5 mg/kg): 46.5 mL/min/kg

Structure (SMILES): COC(=O)c1c(OC)cc2cc3c(c(O)c2c1C)C(=O)[C@]1(OC)C(=O)C=C(OC)[C@@H](O)[C@]1(O)C3=O [TcmX, tetracenomycin X]
IC50 (human ribosome): 10 µM

Structure (SMILES): CC[C@H]1OC(=O)[C@H](C)[C@@H](O[C@H]2C[C@@](C)(OC)[C@@H](O)[C@H](C)O2)[C@H](C)[C@@H](O[C@@H]2O[C@H](C)C[C@H](N(C)C)[C@H]2O)[C@](C)(O)C[C@@H](C)C(=O)[C@H](C)[C@@H](O)[C@]1(C)O [erythromycin, reference compound]
MIC (S. pneumoniae; S. pneumoniae 21Q352, Clinical, i-MLSB): 64 µg/mL (≈ 87.2 µM)
MIC (S. pneumoniae; S. pneumoniae 21Q353, Clinical, i-MLSB): 32 µg/mL (≈ 43.6 µM)
MIC (S. pneumoniae; S. pneumoniae 21X435, Clinical): 0.03 µg/mL (≈ 0.0409 µM)
MIC (S. pneumoniae; S. pneumoniae ATCC49619): 0.03 µg/mL (≈ 0.0409 µM)
MIC (S. pyogenes; S. pyogenes 01-968, Clinical, i-ermB): 1 µg/mL (≈ 1.36 µM)
MIC (S. pyogenes; S. pyogenes 12-207, Clinical, mef): 16 µg/mL (≈ 21.8 µM)
MIC (S. pyogenes; S. pyogenes 21K003, Clinical, mef): 16 µg/mL (≈ 21.8 µM)
IC50 [2]: > 10 µM
IC50 (WT S. aureus ribosomes): 0.18 ± 0.03 µM
CC50 at 48 h [3]: > 100 µM

Second part, the molecule after the results:

melting point: 163.6 to 163.9 °C
Structure (SMILES): CC[C@H]1OC(=O)[C@H](C)[C@@H](OC(=O)NCCCOCCC#Cc2ccc3c(=O)c(C(=O)O)cn(C4CC4)c3c2)[C@H](C)[C@@H](O[C@@H]2O[C@H](C)C[C@H](N(C)C)[C@H]2O)[C@](C)(OC)C[C@@H](C)C(=O)[C@H](C)[C@H]2NC(=O)O[C@@]21C (hydrate or solvate) [95c]

melting point: 163.7 to 164.9 °C
Structure (SMILES): CC[C@H]1OC(=O)[C@H](C)[C@@H](OC(=O)NCCCOCCC#Cc2ccc3c(=O)c(C(=O)O)c[nH]c3c2)[C@H](C)[C@@H](O[C@@H]2O[C@H](C)C[C@H](N(C)C)[C@H]2O)[C@](C)(OC)C[C@@H](C)C(=O)[C@H](C)[C@H]2NC(=O)O[C@@]21C (hydrate or solvate) [95i]

melting point: 172.1 to 173.5 °C
Structure (SMILES): CC[C@H]1OC(=O)[C@H](C)[C@@H](OC(=O)NCCCCOCCC#Cc2ccc3c(=O)c(C(=O)O)cn(C)c3c2)[C@H](C)[C@@H](O[C@@H]2O[C@H](C)C[C@H](N(C)C)[C@H]2O)[C@](C)(OC)C[C@@H](C)C(=O)[C@H](C)[C@H]2NC(=O)O[C@@]21C (hydrate or solvate) [96g]

MIC (S. pneumoniae; [4]): 0.5 µg/mL (≈ 0.503 µM)
MIC (S. pneumoniae; [5]): 2 µg/mL (≈ 2.01 µM)
MIC (S. pneumoniae; Streptococcus pneumoniae, S. pneumoniae PU09, mef, read-out: MIC): 0.5 µg/mL (≈ 0.503 µM)
MIC (S. pyogenes; [6]): 2 µg/mL (≈ 2.01 µM)
MIC (S. aureus; S. aureus 15B196, c-ermB): 256 µg/mL (≈ 257 µM)
MIC (S. aureus; S. aureus PU32, i-ermA): 4 µg/mL (≈ 4.02 µM)
MIC (H. influenzae): 64 µg/mL (≈ 64.4 µM)
melting point: 148.6 to 149.5 °C
Structure (SMILES): CC[C@H]1OC(=O)[C@H](C)[C@@H](OC(=O)NCCCNCCC#Cc2ccc3c(=O)c(C(=O)O)cn(C4CC4)c3c2)[C@H](C)[C@@H](O[C@@H]2O[C@H](C)C[C@H](N(C)C)[C@H]2O)[C@](C)(OC)C[C@@H](C)C(=O)[C@H](C)[C@H]2NC(=O)O[C@@]21C [98c]
